“And” between values parts separate entries of the source, which are not always exact repeats. Identical values can stand only once. Like-named read-outs stand apart in the source and are kept apart here.
Assays:
human α-thrombin = human α-thrombin (Homo sapiens, UniProt P00734); experiment: Protease inhibition, Ki for human α-thrombin (fluorogenic substrate Z-Gly-Gly-Arg-AMC); type: biochemical; conditions: for slope normalized to DMSO, human alpha thrombin inhibition: replicates R1-R3
In short: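 Ki derived through Cheng–Prusoff from IC50s (four-parameter logistic fit) against activity of peptide-free controls. Product fluorescence was read every 3 min over 30 min at 25 °C, substrate Z-Gly-Gly-Arg-AMC at 50 μM. Enzyme was 2 nM human or 3 nM rat α-thrombin, pH 7.4 buffer.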

in vivo = conditions: rat
Procedure: Male Wistar Han rats (250–350 g) obtained at an age of 9–10 weeks from Charles River Laboratories were used for the studies and kept in housing groups of two or three. Experiments were performed at the age of 10–11 weeks. Intravenous (i.v.) administrations were carried out using tail vein injections. Peptides were dissolved in pure DMSO and diluted with 5% Cremophor EL in water (5% DMSO final) at a concentration of 0.5 mg ml^−1. I.v. administration was carried out at a dose of 1 mg kg^−1 body weight via the left lateral tail vein of rats (n = 3) using an Insyte-W 24 G × 0.75 in. (0.7 mm × 19 mm) temporary peripheral venous catheter (BD Biosciences, 381312). Before injecting the peptide solution, a correct placement of the catheter was confirmed by an apparent reflux of blood through the catheter. Orally (p.o.) administrated peptides were dissolved in DMSO and diluted with 10% Cremophor EL in water (5% DMSO final) at a concentration of 1 mg ml^−1 and administrated by oral gavage to rats (n = 3) at a dose of 10 mg kg^−1. Rats used for oral administration were fasted overnight for 14 h and provided access to food again 2 h after administration, whereas access to water was not restricted throughout the whole experimental procedure. Volumes of 100 μl of blood samples were collected via the right lateral tail vein at different timepoints after i.v. or p.o. administration into heparinized tubes (Sarstedt, 20.1282); the samples were stored on ice for up to 4 h; and plasma was obtained by centrifugation at 2,000g for 5 min at 4 °C. A volume of 40 μl of plasma was added to 120 μl of an acetonitrile:water (9:1) solution containing an internal standard (5 μg ml^−1). Samples were vortexed for 10 s and sonicated for 10 min, and precipitated plasma proteins were pelleted by centrifugation at 16,000g for 15 min at 4 °C. Volumes of 120 μl of supernatant were transferred to a new tube, and solvent was evaporated in a rotary vacuum concentrator (RVC 2–33 CDplus IR, Christ) for 2 h at 40 °C. Dried residues were dissolved in 20 μl of a water:acetonitrile (7:3) (v/v) solution, centrifuged at 14,000g for 5 min and analyzed by LC–MS. Peptides were quantified by extracting ion chromatograms corresponding to their respective mass, integrating the area under the peptide peak and calculating the concentrations by normalization to a calibration curve. Calibration curves were prepared by analyzing spiked samples of blood or plasma with known concentrations of peptide. The absolute oral bioavailability was calculated using equation (6).6 F=AUCp.o./AUCi.v.×Dosei.v./Dosep.o.×100 where AUCp.o. and AUCi.v. are calculated from a plasma concentration versus time curve using the linear trapezoidal rule, and Dosei.v. and Dosep.o. are the intravenously or orally administrated amount of peptide in mg kg^−1.

[1] = male, Wistar Han, iv, 1 mg/kg, Concentration in blood samples
[2] = male, Wistar Han, po, 10 mg/kg, Concentration in blood samples

Ki (human α-thrombin; average of R1-R3, read-out: Ki Average, human alpha thrombin inhibition): 65.1 nM
IC50 (human α-thrombin; individual replicates R1-R3, read-out: IC50, human alpha thrombin inhibition): 94.1 nM and 79.8 nM and 79.7 nM
slope normalized to DMSO, human alpha thrombin inhibition (human α-thrombin; peptide 1.00E+02 uM): 10.4 and 9.8 and 9.9
slope normalized to DMSO, human alpha thrombin inhibition (human α-thrombin; peptide 1.19E-05 uM): 103.8 and 104.1 and 105.5
slope normalized to DMSO, human alpha thrombin inhibition (human α-thrombin; peptide 1.22E-02 uM): 87.6 and 86.9 (2×)
slope normalized to DMSO, human alpha thrombin inhibition (human α-thrombin; peptide 1.25E+01 uM): 5.3 and 12.2 and 12.4
slope normalized to DMSO, human alpha thrombin inhibition (human α-thrombin; peptide 1.53E-03 uM): 101.5 and 101.1 and 102.6
slope normalized to DMSO, human alpha thrombin inhibition (human α-thrombin; peptide 1.56E+00 uM): 20.2 and 17.9 and 18.1
slope normalized to DMSO, human alpha thrombin inhibition (human α-thrombin; peptide 1.91E-04 uM): 103.2 and 104.0 and 103.7
slope normalized to DMSO, human alpha thrombin inhibition (human α-thrombin; peptide 1.95E-01 uM): 45.4 and 43.2 and 43.8
slope normalized to DMSO, human alpha thrombin inhibition (human α-thrombin; peptide 2.38E-05 uM): 104.8 and 104.2 and 105.6
slope normalized to DMSO, human alpha thrombin inhibition (human α-thrombin; peptide 2.44E-02 uM): 80.1 and 79.6 and 79.3
slope normalized to DMSO, human alpha thrombin inhibition (human α-thrombin; peptide 2.50E+01 uM): 11.9 and 11.0 and 10.5
slope normalized to DMSO, human alpha thrombin inhibition (human α-thrombin; peptide 3.05E-03 uM): 97.6 and 98.1 and 98.6
slope normalized to DMSO, human alpha thrombin inhibition (human α-thrombin; peptide 3.12E+00 uM): 16.0 and 13.3 and 14.6
slope normalized to DMSO, human alpha thrombin inhibition (human α-thrombin; peptide 3.81E-04 uM): 102.7 and 102.9 and 102.6
slope normalized to DMSO, human alpha thrombin inhibition (human α-thrombin; peptide 3.91E-01 uM): 32.0 and 29.5 and 28.9
slope normalized to DMSO, human alpha thrombin inhibition (human α-thrombin; peptide 4.77E-05 uM): 102.3 and 105.2 and 103.4
slope normalized to DMSO, human alpha thrombin inhibition (human α-thrombin; peptide 4.88E-02 uM): 66.2 and 64.4 and 64.1
slope normalized to DMSO, human alpha thrombin inhibition (human α-thrombin; peptide 5.00E+01 uM): 11.3 and 10.4 and 8.0
slope normalized to DMSO, human alpha thrombin inhibition (human α-thrombin; peptide 6.10E-03 uM): 94.3 and 94.6 and 94.4
slope normalized to DMSO, human alpha thrombin inhibition (human α-thrombin; peptide 6.25E+00 uM): 14.8 and 13.5 (2×)
slope normalized to DMSO, human alpha thrombin inhibition (human α-thrombin; peptide 7.63E-04 uM): 99.9 and 102.3 and 103.3
slope normalized to DMSO, human alpha thrombin inhibition (human α-thrombin; peptide 7.81E-01 uM): 26.0 and 24.0 (2×)
slope normalized to DMSO, human alpha thrombin inhibition (human α-thrombin; peptide 9.54E-05 uM): 102.8 and 104.6 and 103.3
slope normalized to DMSO, human alpha thrombin inhibition (human α-thrombin; peptide 9.77E-02 uM): 53.1 and 52.5
Concentration in blood samples (in vivo; male, Wistar Han, iv, 1 mg/kg, 1 h): 90 nM
level at time molar at 0.08 h (in vivo; [1]): 1310 nM
level at time molar at 0.25 h (in vivo; [1]): 590 nM
level at time molar at 0.5 h (in vivo; [1]): 280 nM
level at time molar at 1 h (in vivo; [1]): 120 nM
level at time molar at 2 h (in vivo; [1]): 53.5 nM
level at time molar at 0.5 h (in vivo; [2]): 290 nM
level at time molar at 1 h (in vivo; [2]): 240 nM
level at time molar at 2 h (in vivo; [2]): 200 nM
level at time molar at 8 h (in vivo; [2]): 17.1 nM
bioavailability (in vivo; po): 18.4 ± 1.9%
Cmax (in vivo; po, 10 mg/kg): 400 ± 120 nM
SMILES: O=C1C[C@H]2CCCN2C(=O)[C@H](Cc2ccccc2)NC(=O)[C@@H](NC(=O)c2ccc(Cl)cc2)CCC=CCCCCN1 (mixture of isomers) [peptide 46]
Ki (human α-thrombin; individual replicates R1-R3, read-out: Ki, human alpha thrombin inhibition): 72.5 nM (2×) and 61.5 nM (2×) and 61.4 nM (2×)

— article PMC11062899, “De novo development of small cyclic peptides that are orally bioavailable” (Nature Chemical Biology, 2023)
